“Also recorded” adds a separate entry of the source.
Legend:
Leydig cells = experiment: Effect of kinase inhibitors on SIP-stimulated DNA synthesis in Leydig cells; type: cell-based, rat; conditions: PD98059 25 μM; LY294002 5 μM; with SIP
Method: (§1) Immature rat Leydig cells and various cancer cell lines were starved for 48 hours before treatment. The cells were then treated with SIP, the polypeptide having the amino acid sequence identified as SEQ ID NO:2, LH, and EGF for 18 hours. The incubation media were collected (Leydig cells) and analyzed for total androgen production. ^3H-thymidine (1 μCi/ml) was added to the cells for further 4 hours incubation. Then the hot media were removed; ice-cold water was added to the cells which were lysed by sonication. The cell lysates were filterd through DE81 ion-exchanger filters. The filter membranes were then put in vials filled with scintillation fluid, and the radioactivity was measured by a Beckman β-counter.
Immature Leydig cells were cultured for 18 h and treated with different concentrations of oLH, SIP and EGF. For some experiments, the cells were treated with oLH or SIP for 18 h in the absence or presence of inhibitors of tyrosine kinase (Genistein; 10 uM), MAPK-kinase (PD98059; 25 μM), PI3-kinase (LY294002; 5 μM) or PKA (H89; 10 μM) to determine the intracellular signaling pathways involved in the effects of SIP on androgen production. The incubation media were collected and analyzed for total androgens using a radioimmunoassay, as described previously (Dickson et al., 2002). […] All samples were analyzed in the same assay, and the intra-assay coefficient of variation was <10%.

rat Leydig cells = experiment: Testosterone production by rat Leydig cells (radioimmunoassay); type: cell-based; conditions: cultured 6, 24 or 48 hours; for testosterone production: radioimmunoassay
Method: Immature rat Leydig cells (ILC) were isolated from 10-day old rat testes and cultured with serum-free medium before treatment. Immature rats were sacrificed at 10 days of age, and the testes were removed Immature Leydig cells were isolated and cultured. The decapsulated testes were incubated for 5 min in culture medium containing 0.25 mg collagenase/ml (Type I, Sigma) in shaking water bath. The seminiferous tubules were allowed to settle at unit gravity for 5 min, and the supernatant containing the suspension of interstitial cells was removed. The supernatant was centrifuged at 90×g for 10 min, and the cell pellet was washed twice by re-suspension in fresh medium followed by centrifugation. The cell suspension was plated in 24-well tissue culture plates (Nunclon; Nunc, Roskilde, Denmark; 2×10^5 cells/well) or in 6-well plates (2×10^6 cells/well) depending upon the end point of the experiment. The cells were cultured at 37° C. in a humidified atmosphere of 5% CO2 and 95% air in serum-free medium. After 1 h, the immature Leydig cells were well attached to the surface of the culture plates, whereas contaminating cells (Sertoli cells, germ cells, precursor Leydig cells) were loosely attached. The cells were washed three times with medium to remove loosely attached cells. At this stage, the cell preparation contains more than 90% immature Leydig cells. Immature Leydig cells cultured in 24-well plates (2×10^5 cells/well) were treated with several doses of oLH for 48 h, and the conditioned media were analyzed for androgen content.
Immature Leydig cells were cultured for 18 h and treated with different concentrations of oLH, SIP and EGF. […] The incubation media were collected and analyzed for total androgens using a radioimmunoassay, as described previously (Dickson et al., 2002). […] All samples were analyzed in the same assay, and the intra-assay coefficient of variation was <10%.

[1] = tested on: immature rat Leydig cells; experiment: Thymidine incorporation assay (DNA synthesis) in immature rat Leydig cells; type: cell-based; conditions: 3H-thymidine incorporation
Method: Immature rat Leydig cells (ILC) were isolated from 10-day old rat testes and cultured with serum-free medium before treatment. Immature rats were sacrificed at 10 days of age, and the testes were removed Immature Leydig cells were isolated and cultured. The decapsulated testes were incubated for 5 min in culture medium containing 0.25 mg collagenase/ml (Type I, Sigma) in shaking water bath. The seminiferous tubules were allowed to settle at unit gravity for 5 min, and the supernatant containing the suspension of interstitial cells was removed. The supernatant was centrifuged at 90×g for 10 min, and the cell pellet was washed twice by re-suspension in fresh medium followed by centrifugation. […] Immature Leydig cells cultured in 24-well plates (2×10^5 cells/well) were treated with several doses of oLH for 48 h, and the conditioned media were analyzed for androgen content.
Immature rat Leydig cells and various cancer cell lines were starved for 48 hours before treatment. […] The incubation media were collected (Leydig cells) and analyzed for total androgen production. ^3H-thymidine (1 μCi/ml) was added to the cells for further 4 hours incubation. […] The filter membranes were then put in vials filled with scintillation fluid, and the radioactivity was measured by a Beckman β-counter.

StAR mRNA = StAR mRNA expression in rat Leydig cells (RT-PCR); type: cell-based; conditions: Leydig cells treated for 24 hour
Method: Total RNA was isolated from Leydig cells using TRIzol (Invitrogen, Carlsbad, Calif.) followed by chloroform extraction and isopropanol precipitation. Two micrograms of total RNA were reverse transcribed at 37° C. for 1 h in a reaction mixture containing 0.5 mM dNTP (Fisher Scientific), 400 U of M-MLV Reverse Transcriptase (Promega), 1×RT buffer, 0.5 mM dithiotreitol (Bio-Rad) and 0.5 μg of oligo dT (Promega). After incubation, the RT enzyme was heat inactivated at 70° C. for […] and the reaction cooled to 4° C. Four microliters of RT reactions were added to separate PCR reaction mixtures (total 10 μl) containing 0.1 mM dNTPs, (Fisher), 0.5 U Tag DNA polymerase (PGC Scientifics, Frederick, Md.), 1×PCR buffer with 3 mM MgC12 (Idaho Technology, Salt Lake City, Utah) and […] of the specific primers for the following genes: scavenger receptor B type 1 (SR-B1), cytochrome P450 cholesterol side-chain cleavage (P450scc), 3β-hydroxysteroid dehydrogenase (3β-HSD), 17 alpha-hydroxylase/C17-20 lyase (P450c17) and steroidogenic acute regulatory (StAR) protein. L19 (a ribosomal protein) primer pair was used as internal control. The following protocol was used in the Rapid Cycler thermal cycler (Idaho Technology): 94° C. for 15 s (initial denaturation), followed by 94° C. for 0 s, 60° C. for 0 s, 72° C. for 20 s for 35 cycles, and 72° C. for 30 s (final extension). […]

PI3-kinase/AKT pathway = experiment: Activation of PI3-kinase/AKT pathway in rat Leydig cells (activation specific antibodies); type: cell-based; conditions: 30 min
Method: (§2) To determine the effects of SIP and EGF on activation of proteins involved in either MAP-kinase or PI3-kinase signaling pathway, immature Leydig cells were cultured in 6-well plates. The cells were washed and treated with SIP (50 μg/ml) or EGF (10 ng/ml) for 30 min in the presence or absence of inhibitors of MAPK-kinase (PD98059; 25 μM) or PI3-kinase (LY294002; 5 μM). The cells were washed twice with ice-cold phosphate-buffered saline and lysed in lysis buffer (Cell Signaling Technology, Beverly, Mass.) containing 20 mM Tris-HCl (pH 7.5), 150 mM NaCl, 1 mM Na2EDTA, 1 mM EGTA, 1% Triton, 2.5 mM sodium pyrophosphate, 1 mM β-glycerophosphate, 1 mM Na3VO4, 1 μg/ml leupeptin and 1× protease inhibitor cocktail (Calbiochem, San Diego, Calif.). Protein concentrations were determined by the Lowry HS assay using the Bio-Rad DCProtein Assay kit (Bio-Rad, Hercules, Calif.) according to the instruction provided by the manufacturer. Cell lysates were mixed with Lammeli's buffer (62.5 mM Tris, pH 6.8, 2% SDS, 5% β-mercaptoethanol and 10% glycerol), and individual samples (25 μg protein) were subjected to SDS-PAGE in 10% gels and transferred to PVDF membranes (Millipore). The membranes were blocked overnight at 4° C. in TBST (50 mM Tris, pH 7.5, containing 0.15M NaCl, 0.05% Tween-20 and 4% fat-free skimmed milk). […]

[2] = tested on: MAP-kinase signaling pathway (Ras, MEK, ERK); experiment: Activation of MAP-kinase signaling pathway in Leydig cells (activation specific immunoblots); type: cell-based, rat; conditions: 30 minutes
Method: as §2

[3] = tested on: immature rat Leydig cells and ovarian, prostate and liver cancer cell lines; experiment: DNA synthesis in Leydig cells and cancer cell lines (summary of FIGS. 8-10); type: cell-based
Method: (§3) Ovarian (HEY, SKA), prostate (DU145, PC3) and breast (MCF7) cancer cell lines were cultured and maintained using well-established culture procedures.
as §1

[4] = tested on: human ovarian epithelial cancer (HEY) cells; experiment: Thymidine incorporation assay (DNA synthesis) in HEY cells; type: cell-based; conditions: different doses of peptide
Method: as §3, §1

[5] = tested on: tyrosine phosphorylation of Leydig cell proteins; experiment: Tyrosine phosphorylation of Leydig cell proteins (phospho-tyrosine immunoblot); type: cell-based, rat; conditions: Leydig cells treated for 30 minutes; listed as synthetic peptide 2
Method: as §2

StAR protein = StAR protein expression in rat Leydig cells (Western blotting); type: cell-based; conditions: Leydig cells treated for 24 hour, listed as synthetic peptide 2

Molecule	effect of inhibitor on SIP effects on DNA synthesis (Leydig cells)	testosterone production compared with purified SIP (rat Leydig cells)	testosterone production (rat Leydig cells; listed as SEQ ID NO:2)	testosterone production (rat Leydig cells; listed as synthetic SIP peptide 2)	DNA synthesis [1]	expression of StAR mRNA (StAR mRNA)	activation of PI3-kinase/AKT pathway (AKT phosphorylation) (PI3-kinase/AKT pathway)	activation of PI3-kinase/AKT pathway (AKT phosphorylation) (PI3-kinase/AKT pathway; listed as synthetic peptide 2)	activation of MAP-kinase pathway (Ras, MEK, ERK1/ERK2 phosphorylation) [2]	activation of MAP-kinase pathway (Ras, MEK, ERK1/ERK2 phosphorylation) ([2]; listed as synthetic peptide 2)	DNA synthesis in different cells [3]	DNA synthesis [4]	tyrosine phosphorylation of cell proteins [5]	expression of StAR protein (StAR protein)
COc1cccc(-c2cc(=O)c3ccccc3o2)c1N [PD98059]	blocks the effects of SIP on DNA synthesis	–	–	–	–	–	–	–	–	–	–	–	–	–
DVNGGGATLPQPLYQTA [peptide 2]	–	not as high as those observed with purified SIP	significant stimulation of testosterone production	stimulation of testosterone production	capable of inducing proliferation of immature rat Leydig cells	induce the expression of StAR mRNA	activated	significant induction of phosphorylation	activated	significant induction of phosphorylation	significant stimulation of DNA synthesis	capable of exerting mitogenic effects	induces the phosphorylation of several proteins at tyrosine; also recorded: capable of binding to SIP receptors and initiating signaling cascade	stimulated the induction of StAR protein; also recorded: induce the expression of protein

Reference: US20120258113A1, “SUSBSTANTIALLY PURE STEROIDOGENESIS INDUCING PEPTIDE AND USES THEREOF” (CLARK ATLANTA UNIVERSITY, priority 2006, published 2012)
